Ki data for 20 compounds are collected here from patent US20060079550A1, “Amino acid derivatives useful for the treatment of alzheimer's disease” (priority 2001, published 2006).

SMILES strings stand for the structures. A value given as a limit tells only on which side of the number the result lay.

One assay deals with aspartyl proteases, in particular, beta-secretase. As to the kind of experiment: Ki of the compounds listed in Tables 1 and 2 (no method described). It counts as biochemical.
Settings: not given
For orientation: Ki means a dissociation constant, usually derived from enzyme kinetics or from competition with a known ligand. Read a high Ki as lower affinity. In turn, `CC(C)CN([C@@H](CCCCNC(=O)OCC1c2ccccc2-c2ccccc21)C(=O)O)S(=O)(=O)c1ccc(C(C)(C)C)cc1` [Compound No. 10, Nα-isobutyl-Nα-(4-tert-butylbenzenesulfonyl)-Nε-(9-fluorenylmethoxycarbonyl)-L-lysine] had a Ki of 0.257 µM.
The same measure, in the same setting: to `Cc1ccc(S(=O)(=O)N(CC(C)C)C(CNCCNC(=O)CCc2ccccc2)C(=O)O)cc1` [Compound No. 206, (2R,2S)-2-[N-isobutyl-N-(4-methylbenzenesulfonyl)]-3-[2′-(N′-dihydrocinnamoyl)ethylamino]-propionic Acid] belongs more than 0.3 µM.

The assay is the same for the next values; noted with them: Table 1, compounds of formula Ia, W is -(CH2)n-.
As for `O=C(N[C@@H](CCCCNS(=O)(=O)c1ccc(Br)cc1)C(=O)O)OCC1c2ccccc2-c2ccccc21` [Compound No. 16, Nε-(4-bromobenzenesulfonyl)-Nα-(9-fluorenylmethoxycarbonyl)-L-lysine], the Ki amounted to 13 µM.
For `O=C(N[C@@H](CCCCNS(=O)(=O)c1cc(Cl)ccc1Cl)C(=O)O)OCC1c2ccccc2-c2ccccc21` [Compound No. 54, Nε-(2,5-dichlorobenzenesulfonyl)-Nα-(9-fluorenylmethoxycarbonyl)-L-lysine], the Ki is more than 6.25 µM.
`O=C(Cc1c[nH]c2ccccc12)N[C@@H](CCCCNS(=O)(=O)c1ccc(Br)cc1)C(=O)O` [Compound No. 29, Nα-(3-indoleacetyl)-Nε-(4-bromobenzenesulfonyl)-L-lysine]: the Ki came out at 10.5 µM.
On the same count and under the same terms, as for `Cc1ccc(S(=O)(=O)N(CC(C)C)C(CCCCNC(=O)OCC2c3ccccc3-c3ccccc32)C(N)=O)cc1` [Compound No. 125, (2R,2S)-N-isobutyl-N-(4-methylbenzenesulfonylamino)-6-(9-fluorenylmethoxycarboxylamino)-1-hexanamide], the figure is 0.107 µM.
`O=C(N[C@@H](CCCCNS(=O)(=O)c1ccccc1Br)C(=O)O)OCC1c2ccccc2-c2ccccc21` [Compound No. 24, Nε-(2-bromobenzenesulfonyl)-Nα-(9-fluorenylmcthoxycarbonyl)-L-lysine] yielded a Ki of 36 µM.
In turn, `CC(C)CN(C(CCCCNC(=O)OCC1c2ccccc2-c2ccccc21)C(=O)O)S(=O)(=O)c1ccc(F)cc1` (racemic) [Compound No. 3, Nα-isobutyl-Nα-(4-fluorobenzenesulfonyl)-Nε-(9-fluorenylmethoxycarbonyl)-DL-lysine] had a Ki of 0.0174 µM.
For the compound `CC(C)CN([C@@H](CCCCNC(=O)OCC1c2ccccc2-c2ccccc21)C(=O)O)S(=O)(=O)c1cccc2ccccc12` [Compound No. 8, Nα-isobutyl-Nα-(1-naphthalenesulfonyl)-Nε-(9-fluorenylmethoxycarbonyl)-L-lysine], the Ki was 0.0549 µM.
`CC(C)CN(C(=O)c1ccccc1)[C@@H](CCCCNC(=O)OCC1c2ccccc2-c2ccccc21)C(=O)O` [Compound No. 46, Nα-isobutyl-Nα-benzoyl-Nε-(9-fluorenylmethoxycarbonyl)-Llysine]: the Ki was more than 0.1 µM.
On the same count and under the same terms, to `COc1ccccc1CCC(=O)NCCCC[C@@H](C(=O)O)N(CC(C)C)S(=O)(=O)c1ccc(N)cc1` [Compound No. 157, Nα-isobutyl-Nα-(4-aminobenzenesulfonyl)-Nε-(2-methoxydihydrocinnamoyl)-L-lysine] belongs 0.0189 µM; to `CC(C)CN([C@@H](CCCCNC(=O)C=Cc1cccc([N+](=O)[O-])c1)C(=O)O)S(=O)(=O)c1ccc([N+](=O)[O-])cc1` [Compound No. 108, Nα-isobutyl-Nα-(4-nitrobenzenesulfonyl)-Nε-(3-nitrocinnamoyl)-L-lysine], more than 0.3 µM.
For `O=C(NCCC[C@H](NC(=O)OCC1c2ccccc2-c2ccccc21)C(=O)O)OCC1c2ccccc2-c2ccccc21` [Compound No. 73, NαNδ-di-(9-fluorenylmethoxycarbonyl)-L-ornithine], the affinity, expressed as Ki, was 1.3 µM.
For `CC(C)CN([C@@H](CCCCNS(=O)(=O)Cc1ccccc1)C(=O)O)S(=O)(=O)c1ccc([N+](=O)[O-])cc1` [Compound No. 115, Nα-isobutyl-Nα-(4-nitrobenzenesulfonyl)-Nε-benzylsulfonyl-L-lysine], the Ki was more than 0.3 µM.
Still for that read-out and setting: to `Cc1ccc(S(=O)(=O)N(CC(C)C)[C@@H](CCCCNC(=O)c2cc3ccccc3[nH]2)C(=O)O)cc1` [compound 88] belongs more than 0.625 µM; to `O=C(N[C@@H](CCCCNS(=O)(=O)c1ccc(I)cc1)C(=O)O)OCC1c2ccccc2-c2ccccc21` [Compound No. 64, Nε-(4-iodobenzenesulfonyl)-Nα-(9-fluorenylmethoxycarbonyl)-L-lysine], 19.2 µM; to `O=C(NCCCC[C@H](NC(=O)OCC1c2ccccc2-c2ccccc21)C(=O)O)OCC1c2ccccc2-c2ccccc21` [Compound No. 71, Nα,Nε-di-(9-fluorenylmethoxycarbonyl)-L-lysine], 44.8 µM.
Still for that read-out and setting: to `CC(C)CN([C@@H](CCCCNC(=O)CCc1ccc2c(c1)OCO2)C(=O)O)S(=O)(=O)c1ccc(N)cc1` [Compound No. 155, Nα-isobutyl-Nα-(4-aminobenzenesulfonyl)-Nε-(3,4-methylenedioxydihydrocinnamoyl)-L-lysine] belongs 0.0157 µM.
With `Cc1cc(C)c(S(=O)(=O)N(CC(C)C)[C@@H](CCCCNC(=O)OCC2c3ccccc3-c3ccccc32)C(=O)O)c(C)c1` [Compound No. 42, Nα-isobutyl-Nα-(2,4,6-trimethylbenzenesulfonyl)-Nε-(9-fluorenylmethoxycarbonyl)-L-lysine], the Ki is more than 0.1 µM.
Compound `CC(C)CN([C@@H](CCCCNC(=O)OCC1c2ccccc2-c2ccccc21)C(=O)O)S(=O)(=O)c1ccc(Br)cc1` [Compound No. 4, Nα-isobutyl-Nα-(4-bromobenzenesulfonyl)-Nε-(9-fluorenylmethoxycarbonyl)-L-lysine] came in with a Ki of 0.0114 µM.
